Measurements taken from US9234231B2, “Screening tool for anti-inflammatory drug discovery comprising the FPR2/ALX gene promoter” (Università degli Studi “G. D'Annunzio” Chieti-Pescara, priority 2011, dated 2016).

Columns and labels:
Type in all cases: cell-based, human
FPR2/ALX promoter = assay: Luciferase reporter gene assay of FPR2/ALX promoter constructs P-1500 and P-346 in MDA-MB231 cells; conditions: MDA-MB231 cells transfected 24 h, then exposed 24 h; LXA4 10 nM, dexametasone 1 μM, IFN-γ 5-100 nM, LPS 500 nM; vs vehicle
Experimental: Left panel. MDA-MB231 cells were transfected with P-1500 or P-346. Twenty four hours post-transfection, cells were exposed to ethanol vehicle or 10 nM LXA4 for additional 24 h. Bars depict mean±S.D. of n=4 carried out with duplicates. *, P=0.018; **, P=0.0076 vs vehicle-treated cells. Right panel. MDA-MB231 cells were exposed to LXA4 (10 nM) for the indicated time. FPR2/ALX mRNA was quantitated by real-time PCR. Bars show mean±S.D. of n=3. *, P=0.05.
Having localized the TSS, a 1500 bp fragment of human genomic DNA (−1449/+51 from the TSS) was amplified by PCR, cloned into the promoterless pGL3 vector containing the luciferase reporter gene. For this purpose, Genomic DNA was extracted from the THP1 cells using the Wizard Genomic DNA Purification Kit (Promega, Milan, Italy). Two primers, (For 1500 bp e Rev 1500 bp, Table 1) were designed on the basis of genomic DNA sequence of 5′-flanking region of the FPR2/ALX gene to amplify a section of DNA starting −1449 bp upstream of the identified transcription start site (+1). In addition to the template (100 ng of genomic DNA) and primers For 1500 bp and Rev 1500 bp (100 ng), the reaction mixture contained 0.2 mM dNTPs, Pfu DNA polymerase buffer and 0.05 units of Jumpstart Taq DNA polymerase (Sigma-Aldrich), PCR consisted of 35 cycles of amplification (30 seconds at 94° C., 30 s at 52° C., and 120 seconds at 72° C.). PCR products were recovered from low melting agarose gel and used as template in PCR reactions using primers For 1500 and Rev 1500, added of Kpn I and Xho I restriction sites, respectively (Table 1). PCR products were resolved by 1.5% agarose gel elecrophoresis, purified and ligated into the pGL3-basic reporter vector, which was previously digested with Kpn I and Xho I restriction endonuclease. […] The promoter activity of the construct was analyzed by transfection into MCF7 and MDA-MB231 cells. […] A slightly higher activity was detected in MDA-MB231 cells (18 fold over empty vector) compared to MCF7 cells (14 fold over empty vector). […]

FPR2/ALX mRNA = FPR2/ALX mRNA expression by real time PCR in MDA-MB231 cells
FPR2/ALX protein = FPR2/ALX protein expression by flow cytometry in MDA-MB231 cells; conditions: 10 μM 5-aza-dC, 72 h, Δ MFI vs untreated cells

Compound | luciferase activity of P-1500 and P-346 (FPR2/ALX promoter) | FPR2/ALX mRNA levels (FPR2/ALX mRNA; MDA-MB231 cells exposed to LXA4 10 nM, real-time PCR) | increase in FPR2/ALX mRNA expression (FPR2/ALX mRNA; MDA-MB231 cells, 10 μM 5-aza-dC, 72 h, vs untreated cells) [fold] | increase in FPR2/ALX protein expression (FPR2/ALX protein) [fold]
IFN-γ: gamma interferon, cytokine | did not give appreciable changes |  |  | 
CCCCCC(O)/C=C/C=C\C=C\C=C\C(O)C(O)CCCC(=O)O (stereo not drawn) [LXA4, 5,6,155-trihydroxy-7,9,11,13-trans-1′-cis-eicosatetraenoic acid] | significantly enhanced | enhanced |  | 
Nc1ncn([C@H]2C[C@H](O)[C@@H](CO)O2)c(=O)n1 [5-aza-dC, 5-aza-2′-deoxycytidine] |  |  | ~10 | ~3
C[C@@H]1C[C@H]2[C@@H]3CCC4=CC(=O)C=C[C@]4(C)[C@@]3(F)[C@@H](O)C[C@]2(C)[C@@]1(O)C(=O)CO [dexametasone] | did not give appreciable changes |  |  | 
